Experimental data as given in publication PMC11921695 (BMC Cancer, 2025).

Tested on: patients with HIV-associated KS

Cn1cnc2c(F)c(Nc3ccc(Br)cc3Cl)c(C(=O)NOCCO)cc21 [selumetinib, 6-(4-Bromo-2-chloro-phenylamino)-7-fluro-3-methyl-3 H-benzoimidazole-5-carboxylic acid (2-hydroxy-ethoxy)-amide hydrogen sulphate]
grade 3 ARs, all rash acneiform (75 mg bd selumetinib): three | patients who experienced at least one adverse event (AE) (16 treated patients): 16 | ALT Increased: Number of AEs reported (CTCAE Grade ≤2): 13 | AST Increased: Number of AEs reported (CTCAE Grade ≤2): 11 | Albumin Decreased: Number of AEs reported (CTCAE Grade ≤2): 12 | CPK Increased: Number of AEs reported (CTCAE Grade ≤2): 14 | Fatigue: Number of AEs reported (CTCAE Grade ≤2): 10 | Nausea: Number of AEs reported (CTCAE Grade ≤2): 11 | Red Blood Cell Count Decreased: Number of AEs reported (CTCAE Grade ≤2): 22 | Vomiting: Number of AEs reported (CTCAE Grade ≤2): 11 | Blood and lymphatic system disorders: Adverse Events Grade 1 E (E = events, any dose): 5 | Blood and lymphatic system disorders: Adverse Events Grade 2 E (E = events, any dose): 1 | Blood and lymphatic system disorders: Adverse Events Grade3 E (E = events, any dose): 0 | Blood and lymphatic system disorders: Adverse Reactions Grade 1 E (E = events, any dose): 4 | Blood and lymphatic system disorders: Adverse Reactions Grade 2 E (E = events, any dose): 1 | Blood and lymphatic system disorders: Adverse Reactions Grade 3 E (E = events, any dose): 0 | Cardiac disorders: Adverse Events Grade 1 E (E = events, any dose): 1 | Cardiac disorders: Adverse Events Grade 2 E (E = events, any dose): 0 | Cardiac disorders: Adverse Events Grade3 E (E = events, any dose): 0 | Cardiac disorders: Adverse Reactions Grade 1 E (E = events, any dose): 0 | Cardiac disorders: Adverse Reactions Grade 2 E (E = events, any dose): 0 | Cardiac disorders: Adverse Reactions Grade 3 E (E = events, any dose): 0 | Eye disorders: Adverse Events Grade 1 E (E = events, any dose): 9 | Eye disorders: Adverse Events Grade 2 E (E = events, any dose): 3 | Eye disorders: Adverse Events Grade3 E (E = events, any dose): 0 | Eye disorders: Adverse Reactions Grade 1 E (E = events, any dose): 6 | Eye disorders: Adverse Reactions Grade 2 E (E = events, any dose): 3 | Eye disorders: Adverse Reactions Grade 3 E (E = events, any dose): 0 | Gastrointestinal disorders: Adverse Events Grade 1 E (E = events, any dose): 47 | Gastrointestinal disorders: Adverse Events Grade 2 E (E = events, any dose): 13 | Gastrointestinal disorders: Adverse Events Grade3 E (E = events, any dose): 0 | Gastrointestinal disorders: Adverse Reactions Grade 1 E (E = events, any dose): 44 | Gastrointestinal disorders: Adverse Reactions Grade 2 E (E = events, any dose): 9 | Gastrointestinal disorders: Adverse Reactions Grade 3 E (E = events, any dose): 0 | General disorders and administration site conditions: Adverse Events Grade 1 E (E = events, any dose): 33 | General disorders and administration site conditions: Adverse Events Grade 2 E (E = events, any dose): 5 | General disorders and administration site conditions: Adverse Events Grade3 E (E = events, any dose): 1 | General disorders and administration site conditions: Adverse Reactions Grade 1 E (E = events, any dose): 23 | General disorders and administration site conditions: Adverse Reactions Grade 2 E (E = events, any dose): 2 | General disorders and administration site conditions: Adverse Reactions Grade 3 E (E = events, any dose): 0 | Infections and infestations: Adverse Events Grade 1 E (E = events, any dose): 2 | Infections and infestations: Adverse Events Grade 2 E (E = events, any dose): 6 | Infections and infestations: Adverse Events Grade3 E (E = events, any dose): 0 | Infections and infestations: Adverse Reactions Grade 1 E (E = events, any dose): 1 | Infections and infestations: Adverse Reactions Grade 2 E (E = events, any dose): 4 | Infections and infestations: Adverse Reactions Grade 3 E (E = events, any dose): 0 | Injury, poisoning and procedural complications: Adverse Events Grade 1 E (E = events, any dose): 2 | Injury, poisoning and procedural complications: Adverse Events Grade 2 E (E = events, any dose): 3 | Injury, poisoning and procedural complications: Adverse Events Grade3 E (E = events, any dose): 0 | Injury, poisoning and procedural complications: Adverse Reactions Grade 1 E (E = events, any dose): 0 | Injury, poisoning and procedural complications: Adverse Reactions Grade 2 E (E = events, any dose): 0 | Injury, poisoning and procedural complications: Adverse Reactions Grade 3 E (E = events, any dose): 0 | Investigations: Adverse Events Grade 1 E (E = events, any dose): 133 | Investigations: Adverse Events Grade 2 E (E = events, any dose): 7 | Investigations: Adverse Events Grade3 E (E = events, any dose): 2 | Investigations: Adverse Reactions Grade 1 E (E = events, any dose): 81 | Investigations: Adverse Reactions Grade 2 E (E = events, any dose): 6 | Investigations: Adverse Reactions Grade 3 E (E = events, any dose): 0 | Metabolism and nutrition disorders: Adverse Events Grade 1 E (E = events, any dose): 13 | Metabolism and nutrition disorders: Adverse Events Grade 2 E (E = events, any dose): 0 | Metabolism and nutrition disorders: Adverse Events Grade3 E (E = events, any dose): 0 | Metabolism and nutrition disorders: Adverse Reactions Grade 1 E (E = events, any dose): 9 | Metabolism and nutrition disorders: Adverse Reactions Grade 2 E (E = events, any dose): 0 | Metabolism and nutrition disorders: Adverse Reactions Grade 3 E (E = events, any dose): 0 | Musculoskeletal and connective tissue disorders: Adverse Events Grade 1 E (E = events, any dose): 4 | Musculoskeletal and connective tissue disorders: Adverse Events Grade 2 E (E = events, any dose): 0 | Musculoskeletal and connective tissue disorders: Adverse Events Grade3 E (E = events, any dose): 0 | Musculoskeletal and connective tissue disorders: Adverse Reactions Grade 1 E (E = events, any dose): 2 | Musculoskeletal and connective tissue disorders: Adverse Reactions Grade 2 E (E = events, any dose): 0 | Musculoskeletal and connective tissue disorders: Adverse Reactions Grade 3 E (E = events, any dose): 0 | Nervous system disorders: Adverse Events Grade 1 E (E = events, any dose): 7 | Nervous system disorders: Adverse Events Grade 2 E (E = events, any dose): 0 | Nervous system disorders: Adverse Events Grade3 E (E = events, any dose): 0 | Nervous system disorders: Adverse Reactions Grade 1 E (E = events, any dose): 5 | Nervous system disorders: Adverse Reactions Grade 2 E (E = events, any dose): 0 | Nervous system disorders: Adverse Reactions Grade 3 E (E = events, any dose): 0 | Psychiatric disorders: Adverse Events Grade 1 E (E = events, any dose): 3 | Psychiatric disorders: Adverse Events Grade 2 E (E = events, any dose): 0 | Psychiatric disorders: Adverse Events Grade3 E (E = events, any dose): 0 | Psychiatric disorders: Adverse Reactions Grade 1 E (E = events, any dose): 3 | Psychiatric disorders: Adverse Reactions Grade 2 E (E = events, any dose): 0 | Psychiatric disorders: Adverse Reactions Grade 3 E (E = events, any dose): 0 | Renal and urinary disorders: Adverse Events Grade 1 E (E = events, any dose): 2 | Renal and urinary disorders: Adverse Events Grade 2 E (E = events, any dose): 0 | Renal and urinary disorders: Adverse Events Grade3 E (E = events, any dose): 0 | Renal and urinary disorders: Adverse Reactions Grade 1 E (E = events, any dose): 1 | Renal and urinary disorders: Adverse Reactions Grade 2 E (E = events, any dose): 0 | Renal and urinary disorders: Adverse Reactions Grade 3 E (E = events, any dose): 0 | Respiratory, thoracic and mediastinal disorders: Adverse Events Grade 1 E (E = events, any dose): 11 | Respiratory, thoracic and mediastinal disorders: Adverse Events Grade 2 E (E = events, any dose): 2 | Respiratory, thoracic and mediastinal disorders: Adverse Events Grade3 E (E = events, any dose): 0 | Respiratory, thoracic and mediastinal disorders: Adverse Reactions Grade 1 E (E = events, any dose): 5 | Respiratory, thoracic and mediastinal disorders: Adverse Reactions Grade 2 E (E = events, any dose): 1 | Respiratory, thoracic and mediastinal disorders: Adverse Reactions Grade 3 E (E = events, any dose): 0 | Skin and subcutaneous tissue disorders: Adverse Events Grade 1 E (E = events, any dose): 29 | Skin and subcutaneous tissue disorders: Adverse Events Grade 2 E (E = events, any dose): 17 | Skin and subcutaneous tissue disorders: Adverse Events Grade3 E (E = events, any dose): 3 | Skin and subcutaneous tissue disorders: Adverse Reactions Grade 1 E (E = events, any dose): 24 | Skin and subcutaneous tissue disorders: Adverse Reactions Grade 2 E (E = events, any dose): 16 | Skin and subcutaneous tissue disorders: Adverse Reactions Grade 3 E (E = events, any dose): 3 | Vascular disorders: Adverse Events Grade 1 E (E = events, any dose): 2 | Vascular disorders: Adverse Events Grade 2 E (E = events, any dose): 0 | Vascular disorders: Adverse Events Grade3 E (E = events, any dose): 0 | Vascular disorders: Adverse Reactions Grade 1 E (E = events, any dose): 0 | Vascular disorders: Adverse Reactions Grade 2 E (E = events, any dose): 0 | Vascular disorders: Adverse Reactions Grade 3 E (E = events, any dose): 0 | Blood and lymphatic system disorders: Adverse Events Grade 1 N (N = patients, any dose): 4 | Blood and lymphatic system disorders: Adverse Events Grade 2 N (N = patients, any dose): 1
